ChEMBL document CHEMBL3826978, “Design, synthesis and biological evaluation of novel chiral oxazino-indoles as potential and selective neuroprotective agents against Aβ25-35-induced neuronal damage” (Bioorg Med Chem Lett, 2016)
The source made the active and inactive calls. The rule behind the calls is not given here.

How the values were obtained:
SH-SY5Y [1] = assay: Neuroprotective activity against amyloid beta(25 to 35)-induced neurotoxicity in human SH-SY5Y cells assessed as cell viability at 10 uM (reference value: 62.1 +/- 2.2%); type: functional; conditions: for viability at 10 µM: read-out: Activity
SH-SY5Y [2] = assay: Neuroprotective activity against H2O2-induced neurotoxicity in human SH-SY5Y cells; type: functional, cell-based
SH-SY5Y [3] = assay: Neuroprotective activity against oxygen glucose deprivation-induced neurotoxicity in human SH-SY5Y cells; type: functional, cell-based
SH-SY5Y [4] = assay: Cytotoxicity against human SH-SY5Y cells assessed as cell viability by MTT assay; type: cell-based
SH-SY5Y [5] = assay: Cytotoxicity against human SH-SY5Y cells assessed as cell proliferation by SRB assay; type: cell-based
SH-SY5Y [6] = assay: Neuroprotective activity against amyloid beta(25 to 35)-induced neurotoxicity in human SH-SY5Y cells assessed as cell viability at 10 uM by SRB assay; type: functional, cell-based

Row | SMILES | Activity (SH-SY5Y [1]) | Activity (SH-SY5Y [2]) | Activity (SH-SY5Y [3]) | viability at 10 µM (SH-SY5Y [1]) [%] | Activity (SH-SY5Y [4]) | Activity (SH-SY5Y [5]) | Activity (SH-SY5Y [6])
1 | CCc1ccc([C@@H]2O[C@@H](C)Cn3c2c(C)c2ccccc23)cc1 | inactive | inactive | inactive |  |  |  | 
2 | Cc1ccccc1[C@H]1O[C@@H](C)Cn2c1c(C)c1ccccc12 | inactive | inactive | inactive |  |  |  | 
3 | Cc1cccc([C@@H]2O[C@@H](C)Cn3c2c(C)c2ccccc23)c1 | inactive | inactive | inactive |  |  |  | 
4 | Cc1c2n(c3ccccc13)C[C@H](C)O[C@H]2c1cccs1 | inactive | inactive | inactive |  |  |  | 
5 | COc1ccccc1[C@H]1O[C@@H](C)Cn2c1c(C)c1ccccc12 | inactive | inactive | inactive |  |  |  | 
6 | COc1cc([C@H]2O[C@@H](C)Cn3c2c(C)c2ccccc23)cc(OC)c1OC | inactive | inactive | inactive |  |  |  | 
7 | Cc1c2n(c3ccccc13)C[C@H](C)O[C@H]2c1ccccc1 | inactive | inactive | inactive |  |  |  | 
8 | O=C(O[C@@H]1Cc2c(O)cc(O)cc2O[C@@H]1c1cc(O)c(O)c(O)c1)c1cc(O)c(O)c(O)c1 [EPIGALOCATECHIN GALLATE] |  |  |  | 98.6 |  |  | 
9 | COc1cccc([C@H]2O[C@@H](C)Cn3c2c(C)c2ccccc23)c1 | inactive | inactive | inactive |  |  |  | 
10 | Cc1c2n(c3ccccc13)C[C@H](C)O[C@H]2c1ccc(Cl)cc1 | inactive | inactive | inactive |  |  |  | 
11 | Cc1c2n(c3ccccc13)C[C@H](C)O[C@@H]2c1ccccc1 | inactive | inactive | inactive |  |  |  | 
12 | COc1ccccc1[C@@H]1O[C@@H](C)Cn2c1c(C)c1ccccc12 |  | inactive | inactive | 77.7 |  |  | 
13 | Cc1c2n(c3ccccc13)C[C@@H](C)O[C@H]2c1ccc(F)cc1 |  | inactive | inactive | 90.6 | Non-toxic | Non-toxic | Active
14 | Cc1c2n(c3ccccc13)C[C@H](C)O[C@@H]2c1ccc(C(F)(F)F)cc1 | inactive | inactive | inactive |  |  |  | 
15 | Cc1ccccc1[C@@H]1O[C@@H](C)Cn2c1c(C)c1ccccc12 | inactive | inactive | inactive |  |  |  | 
16 | Cc1c2n(c3ccccc13)C[C@H](C)O[C@H]2c1ccc(F)cc1 | inactive | inactive | inactive |  |  |  | 
17 | Cc1c2n(c3ccccc13)C[C@H](C)O[C@H]2c1ccc(CC(C)C)cc1 |  | inactive | inactive | 96.2 | Non-toxic | Non-toxic | Active
18 | Cc1cccc([C@H]2O[C@@H](C)Cn3c2c(C)c2ccccc23)c1 | inactive | inactive | inactive |  |  |  | 

Row | SMILES | Activity (SH-SY5Y [1]) | Activity (SH-SY5Y [2]) | Activity (SH-SY5Y [3]) | viability at 10 µM (SH-SY5Y [1]) [%] | Activity (SH-SY5Y [4]) | Activity (SH-SY5Y [5]) | Activity (SH-SY5Y [6])
19 | Cc1c2n(c3ccccc13)C[C@H](C)O[C@H]2c1ccc(C(C)(C)C)cc1 |  | inactive | inactive | 92.1 | Non-toxic | Non-toxic | Active
20 | Cc1c2n(c3ccccc13)C[C@H](C)O[C@@H]2c1cccs1 | inactive | inactive | inactive |  |  |  | 
21 | Cc1c2n(c3ccccc13)C[C@@H](C)O[C@@H]2c1ccccc1 | inactive | inactive | inactive |  |  |  | 
22 | Cc1c2n(c3ccccc13)C[C@@H](C)O[C@@H]2c1ccc(F)cc1 | inactive | inactive | inactive |  |  |  | 
23 | Cc1c2n(c3ccccc13)C[C@H](C)O[C@@H]2c1ccc(C(C)(C)C)cc1 |  | inactive | inactive | 84.5 |  |  | 
24 | COc1cc([C@@H]2O[C@@H](C)Cn3c2c(C)c2ccccc23)cc(OC)c1OC | inactive | inactive | inactive |  |  |  | 
25 | Cc1c2n(c3ccccc13)C[C@H](C)O[C@@H]2c1ccc(Cl)cc1 |  | inactive | inactive | 74.4 |  |  | 
26 | Cc1c2n(c3ccccc13)C[C@H](C)O[C@@H]2c1coc2ccccc2c1=O | inactive | inactive | inactive |  |  |  | 
27 | COc1cccc([C@@H]2O[C@@H](C)Cn3c2c(C)c2ccccc23)c1 | inactive | inactive | inactive |  |  |  | 
28 | Cc1ccc([C@@H]2O[C@@H](C)Cn3c2c(C)c2ccccc23)cc1 | inactive | inactive | inactive |  |  |  | 
29 | Cc1cc(C)cc([C@@H]2O[C@@H](C)Cn3c2c(C)c2ccccc23)c1 |  | inactive | inactive | 87.1 |  |  | 
30 | CCc1ccc([C@H]2O[C@@H](C)Cn3c2c(C)c2ccccc23)cc1 |  | inactive | inactive | 93 | Non-toxic | Non-toxic | Active
31 | Cc1ccc([C@H]2O[C@@H](C)Cn3c2c(C)c2ccccc23)cc1 | inactive | inactive | inactive |  |  |  | 
32 | Cc1c2n(c3ccccc13)C[C@H](C)O[C@H]2c1ccc(C(F)(F)F)cc1 | inactive | inactive | inactive |  |  |  | 
33 | Cc1c2n(c3ccccc13)C[C@H](C)O[C@@H]2c1ccc(CC(C)C)cc1 |  | inactive | inactive | 108 | Non-toxic | Non-toxic | Active
34 | Cc1c2n(c3ccccc13)C[C@H](C)O[C@@H]2c1ccc(F)cc1 | inactive | inactive | inactive |  |  |  | 
35 | Cc1c2n(c3ccccc13)C[C@@H](C)O[C@H]2c1ccccc1 | inactive | inactive | inactive |  |  |  | 
36 | Cc1cc(C)cc([C@H]2O[C@@H](C)Cn3c2c(C)c2ccccc23)c1 | inactive | inactive | inactive |  |  |  | 
